Data taken from patent publication US20130023491A1, “BETA-CELL REPLICATION PROMOTING COMPOUNDS AND METHODS OF THEIR USE” (President and Fellows of Harvard College, priority 2009, published 2013).
“Also recorded” adds a separate entry of the source. Like-named read-outs stand apart in the source and are kept apart here.

How the values were obtained:
[1] = tested on: β-cells (dispersed rat islet cells); test: primary islet β-cell replication assay (PDX-1/ki-67 co-staining, automated imaging); format: cell-based; settings: for EC50: Rattus norvegicus; for increase of β-cell replication: 24 h, 5-IT 2 μM, GLP-1 and Ex-4 20 nM and 4 nM, normalized to DMSO
Protocol: Rat islets were isolated as previously described in Gotoh M, Maki T, Kiyoizumi T, Satomi S, Monaco A P: An improved method for isolation of mouse pancreatic islets. Transplantation 40:437-438, 1985, contents of which are herein incorporated by reference in their entirety. Isolated islets were cultured overnight in a tissue culture incubator. The following morning, islets were trypsinized into cellular clusters of 1-3 cells, re-suspended in islet media (Mediatech 99-786-CV; 10% FBS serum (Valley Biomedial BS3033); 8.3 mM Glucose (Sigma G7528); 1× Penicillin/Streptomycin (Invitrogen 15070-063); 1× Glutamax (Invitrogen 35050-079)) and plated into the wells of a 96-well plate (Sigma CLS3904) that had been coated with 804G (a rat bladder carcinoma cell line) conditioned media. The cellular plating density was 60 k cells/well and greater than 95% viability was confirmed at the time of plating. […] For screening, compounds were tested at 1 uM concentration in duplicate. After 24-hours of compound treatment, cells were fixed with fresh 4% PFA (Electron Microscopy Services 15710) for 20 minutes and washed with PBS (VWR 45000-446). Antigen retrieval was performed by heating the cells to 90 degrees Celsius in 0.1 mM EDTA (Ambion AM9260G) in PBS. Cells were then washed and permeabalized with PBS/0.3% Triton X-100 (J.T.Baker X198-07) for 15 minutes. Immunocytochemical staining was then performed as follows. Antigen blocking was performed with 5% normal donkey serum (Jackson ImmunoResearch 017-000-121) in PBS for an hour. Staining was performed by overnight incubation with primary antibody at 4 degrees Celsius. For the primary screen, PDX-1 antibody (R&D AF2419) was used to reveal beta-cells and ki-67 antibody (BD Bioscience 556003) to visualize proliferating cells. Without wishing to be bound by theory, the failure of prior beta-cell replication screens is primarily a consequence of using a cytoplasmic marker (Insulin) as the β-cell identifier. The use of a cytoplasmic marker prevents accurate attribution of nuclear replication to a specific cell identity i.e., in dense culture it is impossible to attribute a cytoplasm to a specific nucleus given the proximity to multiple nuclei. Additional Immunohistochemistry antibodies included Phosphohistone 3 (Millipore 06-570), Insulin (Dako A0564), Glucagon (Millipore 4031-01F) and Vimentin (Millipore ab5733). For western blotting anti-bodies included ADK (Abcam ab38010, ab64825) and RAN (BD Bioscience 610340) as a loading control.
Once compound-treated islet cells were stained, β-cell replication was assessed via automated image acquisition and analysis using a Cellomics ArrayScanVTI. The acquisition thresholds/parameters were established such that the computer-based calls of replication events were consistent with human-based calls. The parameters used were directed at the identification of (1) PDX-1+ cells and (2) ki-67 positive staining within the PDX-1 positive area. The algorithm was a three step process. First the nuclear area was predicted by the software based upon the expected PDX-1 staining pattern. Second PDX-1 positive cells (selected objects) were counted based upon the average staining intensity within the predicted nuclear area (Note: total signal intensity was essentially equal in quality but was not typically used). Third, the number of PDX-1 positive cells (selected objects) that simultaneously were Ki-67 positive was determined by determining the average fluorescence intensity of ki-67 staining within the predicted nuclear area (again, total intensity was also occasionally used with equal efficacy). The specific thresholds (fluorescence intensities) varied from experiment to experiment. In general, the basal replication rate was set at roughly 1% i.e., the algorithm was varied until 1% of DMSO treated PDX+ cells were reported to be double positive for PDX-1 and ki67. […]

[2] = tested on: islet β-cells; test: in vivo β-cell replication (BRDU incorporation); parameters: species or system mouse; settings: mice
Excerpt: 24-hours post treatment, animals were sacrificed and the pancreas was fixed, sectioned and stained for PDX-1 and BRDU (Amaersham RPN202). Every fourth section was included in analysis and a minimum of 2000 PDX-1^+ per animal were counted.
(§1) A minority of these cells were not exocrine cells. […] Dividing cells were BRDU^+ (Amaersham RPN202).

[3] = tested on: exocrine cells; test: in vivo exocrine cell replication (BRDU incorporation); parameters: species or system mouse; settings: mice, 21 mg/kg, 24 h
Excerpt: as §1

[4] = tested on: murine β-cells; test: murine islet β-cell replication (PDX-1/ki-67); format: cell-based, mouse; settings: FIG. 13b top
Protocol: (§2) Rat and mouse islets were isolated as previously described. (M. Gotoh, et al., Transplantation 43, 725-730 (1987)) All animal work was approved and carried out in accordance with our institutional animal care and use committee. Porcine islets were provided by VitaCyte (Indianapolis, Id.). Islets were incubated (37° C., 5% CO2) overnight in islet media (Mediatech 99-786-CV; 10% FBS serum (Valley Biomedial BS3033); 8.3 mM Glucose (Sigma G7528); 1× Penicillin/Streptomycin (Invitrogen 15070-063); 1× Glutamax (Invitrogen 35050-079)). The following morning, islets were trypsinized into cellular clusters of 1-3 cells, re-suspended in islet media and plated into the wells of a 96-well plate (Sigma CLS3904) that had been coated with 804G (a rat bladder carcinoma cell line) conditioned media. The cellular plating density was 60 k cells/well and greater than 95% viability was confirmed at the time of plating. The islet cells were allowed 48-hours to adhere at which time the media was changed (as above, except 2% serum, 5 mM glucose) and the cells were compound treated. For screening, compounds were tested at 1 μM and 10 μM concentrations in duplicate on a single occasion. After 24-hours of compound treatment, cells were fixed with fresh 4% PFA. Antigen retrieval was performed by heating the cells to 90 degrees Celsius in 0.1 M EDTA in distilled water. […]

[5] = compared to 5-IT; Zheng et al. 2001; cited from earlier work
[6] = tested on: porcine β-cells; test: porcine islet β-cell replication (PDX-1/ki-67); format: cell-based; settings: FIG. 13b bottom
Protocol: as §2

Molecule: Nc1ncnc2c1c(I)cn2[C@H]1CC[C@@H](CO)O1 [7-Iodo-2,3-dideoxy-7-deazadenosine, 7-deaza-7-iodo-2′,3′-dideoxyadenosine]
- β-cell replication after treatment with additional ADK-Is ([1]; FIG. 17b, 7-Iodo-2,3-dideoxy-7-deazadenosine 20 μM, 10 μM, Aristeromycin 6 μM, 1 μM): increased

Molecule: Nc1ncnc2nc(-c3ccc(N4CCOCC4)nc3)cc(-c3cccc(Br)c3)c12 [ABT-702, 5-(3-bromophenyl)-7-(6-morpholinopyridin-3-yl)pyrido[2,3-d]pyrimidin-4-amine]
- in vivo β-cell replication rate, β-cells identified by insulin immunostaining ([2]; separate cohort, FIG. 20): increases
- increase in BRDU incorporation by β-cells in vivo (PDX-1 identified) ([2]; single intraperitoneal injection, 21 mg/kg, 24 h): 2 fold
- in vivo replication rate of exocrine cells [3]: did not increase
- induction of β-cell replication, murine islet cells [4]: induction of β-cell replication similar to that observed for rat islet cells
- half-life [5]: longer half-life compared to 5-IT
- % of Ki-67 positive β-cells (PDX-1 and Ki-67 positive cells), dose curve ([1]; A10 0.019-10 uM, B8 0.23-30 uM): increased in a dose dependent manner
- EC50 ([1]; FIG. 13c dose-response curves, read-out: EC50, β-cell proliferation in rat islet cultures): 7 µM
- EC50 ([1]; dose curves FIG. 2a (A10) and FIG. 3 (B8), Ki-67 positive β-cells, read-out: EC50 for β-cell proliferation): 9.1 µM
- induction of β-cell replication, porcine islet cells [6]: induction of β-cell replication similar to that observed for rat islet cells

Molecule: NC(=O)c1ncn([C@@H]2O[C@H](CO)[C@@H](O)[C@H]2O)c1N [AICAR, 5-aminoimidazole-4-carboxamide ribonucleoside]
- % β-cell replication ([1]; AICAR 3.3 μM): increase

Molecule: c1cc(-c2cnn3cc(-c4ccc(OCCN5CCCCC5)cc4)cnc23)ccn1 [Cpd C]
- beta-cell replication with A10 relative to the uninhibited controls ([1]; Cpd C 10 μM): decrease

Molecule: Nc1ncnc2c1ncn2[C@@H]1O[C@H](CO)[C@@H](O)[C@H]1O [adenosine]
- effect on % PDX-1 and Ki-67 expressing cells (β-cell proliferation) ([1]; rat islets, adenosine 0.05-1000 uM): little effect; also recorded: no effect

Molecule: Exendin-4 [Ex-4]
- increase of β-cell replication [1]: ~1.5 fold

Molecule: Glucagon-like peptide-1 [GLP-1]
- increase of β-cell replication [1]: ~1.5 fold
